Each structure is given as a SMILES string. pKi: −log10 of the molar value. Counter-ions that a name gives are not always drawn.

One data set addresses T1, V1a receptor (Rattus norvegicus, UniProt P30560).
T1 construct: from tissue; host or cells: whole animal: awake male Sprague-Dawley rats
Put plainly: V1a receptor antagonism in awake rat (oral administration), inhibition of AVP-induced vasopressure. The following applies: for AVP vasopressure inhibition effect after 8 hours since administration: 8 hours after administration; for maximum vasopressure inhibition rate: one third of the 3 mg/kg SR49059 dose, maximum after 2 to 6 hours since administration, 30 mU/kg AVP i.v. The class given is in vivo. How it is done:
One day before evaluation of test compounds, a cannula for blood pressure measurement was inserted into left carotid artery, and a cannula for arginine vasopressin (AVP) administration was inserted into left cervical vein. Blood pressure of artery cannula was measured via pressure transducer during rats were awake. During evaluation of test compounds, elevation breadth of mean blood pressure resulting from intravenous administration of 30 mU/kg of AVP was determined as a vasopressure control, in advance. After test compound was suspended in 0.5% methylcellulose solution and orally administered at 1 to 3 mg/kg, 30 mU/kg of AVP was intravenously administered at fixed time points from 0.5 to 8 hours, and vasopressure value was measured. [Vasopressure inhibition rate (%) at each measurement point after administration]=[(A−B)/A]×100 Wherein, control vasopressure=A, and vasopressure value at each measurement point=B

The subject of a further data set is male ICR mice. Put plainly: Acute toxicity study, oral, male ICR mice. The class given is in vivo, mouse. To be noted: single administration in 0.5% methylcellulose, observed 6 days. How it is done: Test compound suspended in 0.5% methylcellulose solution was orally administered to male ICR mice (body weight 25 to 35 g), which were separated into groups each having 5 mice, and body weight change and general symptom after 6 days since administration were observed. During the test period except for 17 to 20 hours before administration and after 2 hours since administration, mice were allowed to take feed and water ad libitum.

Data set [1] concerns the target human vasopressin V1a receptor (Homo sapiens, UniProt P37288). Put plainly: Receptor binding study, [3H]AVP displacement on CHO cell membranes, human V1a. The following applies: [3H]AVP displacement, CHO cell membrane, 25° C., one hour; read-out: Human V1a Ki. The gist of the method:
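Membrane binding in 50 mM Tris-HCl pH 7.4 with MgCl2 and 0.1% BSA, incubated 1 h at 25° C. Bound ligand collected by rapid filtration on glass fiber filters, washed with ice-cold buffer, and counted for radioactivity. Nonspecific binding defined with 1 μM unlabeled AVP.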

Data set [2] deals with human vasopressin V2 receptor (Homo sapiens, UniProt P30518). The data set is described as follows: Receptor binding study, [3H]AVP displacement on CHO cell membranes, human V2. The following applies: [3H]AVP displacement, CHO cell membrane, 25° C., one hour; read-out: Human V2 Ki. The essentials: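 Displacement format: test compound over a concentration range competes with constant [3H]AVP (0.5 nM to 1.0 nM) for human V2 sites on CHO membranes, one hour at room temperature (25 °C), Tris-HCl pH 7.4 buffer. Filtration then radioactivity counting; 1 μM non-radioactive AVP gives nonspecific binding.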
Sequence of human vasopressin V2 receptor (P30518 whole entry): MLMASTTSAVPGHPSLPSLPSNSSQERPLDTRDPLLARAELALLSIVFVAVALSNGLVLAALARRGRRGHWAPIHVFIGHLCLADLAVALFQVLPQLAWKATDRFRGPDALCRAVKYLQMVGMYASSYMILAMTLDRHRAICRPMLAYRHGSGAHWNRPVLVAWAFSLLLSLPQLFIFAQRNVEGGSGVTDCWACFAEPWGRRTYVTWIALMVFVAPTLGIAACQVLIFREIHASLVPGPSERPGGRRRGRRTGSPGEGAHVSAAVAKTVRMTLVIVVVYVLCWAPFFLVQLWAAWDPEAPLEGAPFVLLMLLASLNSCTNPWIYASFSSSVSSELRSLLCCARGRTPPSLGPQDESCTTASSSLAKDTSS

Sequence of human vasopressin V1a receptor (P37288 whole entry): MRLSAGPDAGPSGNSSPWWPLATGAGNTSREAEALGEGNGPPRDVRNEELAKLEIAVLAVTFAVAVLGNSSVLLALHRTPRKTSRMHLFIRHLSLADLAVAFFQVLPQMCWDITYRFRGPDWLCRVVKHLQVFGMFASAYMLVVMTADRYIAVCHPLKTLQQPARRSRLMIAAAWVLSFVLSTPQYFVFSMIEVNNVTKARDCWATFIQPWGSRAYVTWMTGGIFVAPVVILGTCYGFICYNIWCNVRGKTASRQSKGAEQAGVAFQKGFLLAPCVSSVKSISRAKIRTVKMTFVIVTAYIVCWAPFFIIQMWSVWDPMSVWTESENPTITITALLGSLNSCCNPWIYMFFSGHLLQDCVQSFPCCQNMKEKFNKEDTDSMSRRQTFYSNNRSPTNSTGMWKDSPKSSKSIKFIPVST
T1 sequence (P30560 whole entry): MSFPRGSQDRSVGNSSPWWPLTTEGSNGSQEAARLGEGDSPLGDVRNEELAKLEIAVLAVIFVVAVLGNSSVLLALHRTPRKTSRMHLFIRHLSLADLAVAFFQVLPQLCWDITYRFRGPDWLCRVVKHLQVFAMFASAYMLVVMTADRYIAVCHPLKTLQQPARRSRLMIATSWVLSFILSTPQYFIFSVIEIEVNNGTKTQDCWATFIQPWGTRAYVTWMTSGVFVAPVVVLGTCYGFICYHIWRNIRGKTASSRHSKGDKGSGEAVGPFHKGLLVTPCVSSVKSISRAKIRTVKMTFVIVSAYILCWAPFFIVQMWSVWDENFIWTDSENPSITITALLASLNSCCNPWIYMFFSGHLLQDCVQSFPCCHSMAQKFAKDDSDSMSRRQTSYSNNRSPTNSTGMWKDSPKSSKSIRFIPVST

As for `CCCN(C)CCCCOc1cc(C(=O)N2CC[C@H](C)Nc3ccccc32)ccc1-c1ccc2[nH]ccc2c1` [117 fumarate], on V1a receptor, the “AVP vasopressure inhibition effect after 8 hours since administration” value was “significant AVP vasopressure inhibition effect” and the “maximum vasopressure inhibition rate” value is 77.7%. In addition, in the data set with male ICR mice, the Toxicity expressing dose is on record as over 300 mg/kg.

Turning to `CCCCN1CCN(CCCOc2cc(C(=O)N3CC[C@H](C)Nc4ccccc43)ccc2-c2ccc3[nH]ccc3c2)CC1` [122 maleate], at V1a receptor, the “AVP vasopressure inhibition effect after 8 hours since administration” value was “significant AVP vasopressure inhibition effect” and the “maximum vasopressure inhibition rate” value is reported as 67.3%. Also, the Toxicity expressing dose in the data set on male ICR mice was over 300 mg/kg.

A word on the pKi: it is the negative decadic logarithm of the Ki, by convention in mol/L. On to `CCCN(C)C1CCN(CCOc2cc(C(=O)N3CC[C@H](C)Nc4ccccc43)ccc2-c2ccc3[nH]ccc3c2)CC1` [Example 151, N-[1-[2-[2-(1H-indol-5-yl)-5-[[(4S)-4-methyl-2,3,4,5-tetrahydro-1H-1,5-benzodiazepin-1-yl]carbonyl]phenoxy]ethyl]-4-piperidinyl]-N-methyl-N-propylamine], for which the pKi in data set [1] was 9.60; in data set [2] it was 8.00.

Turning to `CCCN(C)CCCOc1cc(C(=O)N2CC[C@H](C)Nc3ccccc32)ccc1-c1ccc(NCC)c(F)c1` [Example 154, N-ethyl-3-fluoro-2′-[3-[methyl(propyl)amino]propoxy]-4′-[[(4S)-4-methyl-2,3-4,5-tetrahydro-1H-1,5-benzodiazepin-1-yl]carbonyl][1,1′-biphenyl]-4-amine], the pKi in data set [1] is 9.40; in data set [2] it was 7.28.

In the case of `CCCN(C)CCCCOc1cc(C(=O)N2CC[C@H](C)Nc3ccccc32)ccc1-c1ccc(NCC)cc1` [Example 156], the pKi in data set [1] is 9.72; in data set [2], 7.28.

Consider `CCCN(C)CCCOc1cc(C(=O)N2CC[C@H](C)Nc3ccccc32)ccc1-c1ccc(OC(F)F)cc1` [Example 157, N-(3-[[4′-(difluoromethoxy)-4-[[(4S)-4-methyl-2,3,4,5-tetrahydro-1H-1,5-benzodiazepin-1-yl]carbonyl][1,1′-biphenyl]-2-yl]oxy]propyl]-N-methyl-N-propylamine], for which the pKi in data set [1] is 9.55; in data set [2] it was 7.55.

`C[C@H]1CCN(C(=O)c2ccc(-c3ccc4[nH]ccc4c3)c(C(=O)CCCCN(C)C)c2)c2ccccc2N1` [Example 158, 5-(dimethylamino)-1-[2-(1H-indol-5-yl)-5-[[(4S)-4-methyl-2,3,4,5-tetrahydro-1H-1,5-benzodiazepin-1-yl]carbonyl]phenyl]-1-pentanone]: the negative logarithm of the Ki (pKi) in data set [1] is 9.96; in data set [2] it was 7.89.

Take `CCCN1CCN(CCCOc2cc(C(=O)N3CC[C@H](C)Nc4ccccc43)ccc2-c2ccc(NCC)cc2)CC1` [Example 159, N-ethyl-4′-[[(4S)-4-methyl-2,3-4,5-tetrahydro-1H-1,5-benzodiazepin-1-yl]carbonyl]-2′-[3-(4-propyl-1-piperazinyl)propoxy][1,1′-biphenyl]-4-amine]: the figures for the pKi in data set [1] and in data set [2] were 9.74 and 7.96, respectively.

Regarding `CCCN1CCN(CCOc2cc(C(=O)N3CC[C@H](C)Nc4ccccc43)ccc2-c2ccc(NCC)cc2)CC1` [Example 160, N-ethyl-4′-[[(4S)-4-methyl-2,3-4,5-tetrahydro-1H-1,5-benzodiazepin-1-yl]carbonyl]-2′-[2-(4-propyl-1-piperazinyl)ethoxy][1,1′-biphenyl]-4-amine], the pKi in data set [1] is 9.70; in data set [2], 7.66.

`C[C@H]1CCN(C(=O)c2ccc(-c3ccc4[nH]ccc4c3)c(C(=O)OCCCCN(C)C)c2)c2ccccc2N1` [Example 162, 4-(dimethylamino)butyl 2-(1H-indol-5-yl)-5-[[(4S)-4-methyl-2,3,4,5-tetrahydro-1H-1,5-benzodiazepin-1-yl]carbonyl]benzoate]: the pKi in data set [1] was 9.89; in data set [2], 7.54.

On to `CCCN(C)CCCOc1cc(C(=O)N2CC[C@H](C)Nc3ccccc32)ccc1-c1ccc(N)cc1` [Example 164, 2′-[3-[methyl(propyl)amino]propoxy]-4′-[[(4S)-4-methyl-2,3,4,5-tetrahydro-1H-1,5-benzodiazepin-1-yl]carbonyl][1,1′-biphenyl]-4-amine], for which the pKi in data set [1] was 9.82; in data set [2], 6.32.

As to `CCCNCCCOc1cc(C(=O)N2CC[C@H](C)Nc3ccccc32)ccc1-c1ccc(NCC)cc1` [Example 165, N-ethyl-4′-[[(4S)-4-methyl-2,3,4,5-tetrahydro-1H-1,5-benzodiazepin-1-yl]carbonyl]-2′-[3-(propylamino)propoxy][1,1′-biphenyl]-4-amine], the pKi in data set [1] was 9.55; in data set [2], 7.04.

With `CC1CCN(C(=O)c2ccc(-c3ccc4[nH]ccc4c3)c(OCCCNC(=O)CN)c2)c2ccccc2N1` (stereo not drawn) [Example 169, 2-amino-N-[3-[2-(1H-indol-5-yl)-5-[(4-methyl-2,3,4,5-tetrahydro-1H-1,5-benzodiazepin-1-yl]carbonyl]phenoxy]propyl]acetamide], the pKi is 9.89 in data set [1] and 8.31 in data set [2].

As for `CCOC(=O)CC(=O)NCCCOc1cc(C(=O)N2CC[C@H](C)Nc3ccccc32)ccc1-c1ccc2[nH]ccc2c1` [Example 170, ethyl 3-[[3-[2-(1H-indol-5-yl)-5-[[(4S)-4-methyl-2,3,4,5-tetrahydro-1H-1,5-benzodiazepin-1-yl]carbonyl]phenoxy]propyl]amino]-3-oxopropanoate], the pKi is 9.43 in data set [1] and 8.59 in data set [2].

As for `CCN(C)CCCCOc1cc(C(=O)N2CC[C@H](C)Nc3ccccc32)ccc1-c1ccc2[nH]ccc2c1` [Example 172, N-ethyl-4-[2-(1H-indol-5-yl)-5-[[(4S)-4-methyl-2,3,4,5-tetrahydro-1H-1,5-benzodiazepin-1-yl]carbonyl]phenoxy]-N-methyl-1-butaneamine], the negative-log Ki (pKi) in data set [1] was 10.03; in data set [2], 8.15.

Consider `CCCCN(C)CCCCOc1cc(C(=O)N2CC[C@H](C)Nc3ccccc32)ccc1-c1ccc2[nH]ccc2c1` [Example 173, N-butyl-4-[2-(1H-indol-5-yl)-5-[[(4S)-4-methyl-2,3,4,5-tetrahydro-1H-1,5-benzodiazepin-1-yl]carbonyl]phenoxy]-N-methyl-1-butaneamine], for which the pKi in data set [1] was 9.68; in data set [2] it was 8.00.

For `CCCCCN(C)CCCCOc1cc(C(=O)N2CC[C@H](C)Nc3ccccc32)ccc1-c1ccc2[nH]ccc2c1` [Example 174, N-[4-[2-(1H-indol-5-yl)-5-[[(4S)-4-methyl-2,3,4,5-tetrahydro-1H-1,5-benzodiazepin-1-yl]carbonyl]phenoxy]butyl]-N-methyl-1-pentaneamine], the pKi in data set [1] was 9.46; in data set [2] it was 7.96.

Values taken from patent US20080076760A1, “2,3,4,5-TETRAHYDRO-1H-1,5-BENZODIAZEPINE DERIVATIVE AND MEDICINAL COMPOSITION” (priority 2004, published 2008).
